The subject of assay [1] is P. falciparum male gametocytes. Description: P. falciparum Dual Gamete Formation Assay (PfDGFA), male readout (exflagellation). The settings on record: for Average inhibition male (%): average of replicates; for % inhibition male (individual replicates) R1: replicate R1; for % inhibition male (individual replicates) R3: replicate R3; for % inhibition male (individual replicates) R4: replicate R4; for Activity: hit = >50% inhibition in male or female readout in at least 3 replicates, 0 = no class assigned. It is filed as cell-based, Plasmodium falciparum NF54. Put shortly: (§1)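 Mature NF54 gametocytes (day 14) were incubated with compound for 24 h at 37°C under 1% O2/3% CO2, then triggered with xanthurenic acid ookinete medium plus Cy3-anti-Pfs25. Exflagellation was imaged by brightfield; after a further 24 h at 28°C, Pfs25-positive female gametes were imaged by fluorescence and counted by automated image analysis.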

For assay [2], the system named is P. falciparum female gametocytes. As to the kind of experiment: P. falciparum Dual Gamete Formation Assay (PfDGFA), female readout (Pfs25-positive female gametes). Conditions: for Average inhibition female (%): average of replicates; for % inhibition female (individual replicates) R1: replicate R1; for % inhibition female (individual replicates) R3: replicate R3; for % inhibition female (individual replicates) R4: replicate R4. It is filed as cell-based, Plasmodium falciparum NF54. Put shortly: as §1

The mark [3] stands for this setting: 2µM, 24h preincubation with gametocytes prior to induction of gametogenesis.
Where [4] appears, read: 2µM, 24h preincubation, hits selected on >50% inhibition in the male readout across replicates.
[5] abbreviates: PfDGFA at 2µM, 24h preincubation.
The mark [6] stands for this setting: 2µM, 24h preincubation, hits selected on >50% inhibition in the female readout across replicates.
[7] abbreviates: 2µM, 24h preincubation, number of replicates with >50% inhibition in the male readout.
Where [8] appears, read: 2µM, 24h preincubation, number of replicates with >50% inhibition in the female readout.
[9] abbreviates: PfDGFA at 2µM, 24h preincubation with gametocytes prior to induction of gametogenesis.

For `Cc1cc(N2C(N)=NC(N)=NC2(C)C)ccc1Cl.Cl` [TCMDC-137705], in assay [1] (setting [3]), the “Average inhibition male (%)” value is -12.7%, the “% inhibition male (individual replicates) R1” value is listed as 23.4%, the “% inhibition male (individual replicates) R3” value is on record as -17.5% and the “% inhibition male (individual replicates) R4” value is -53.8%. The same compound came in with a HitlevelM in assay [1] (setting [4]) of 0. Further, in assay [1] (setting [5]), the Activity amounted to 0. In addition, in assay [2] (setting [3]), the “Average inhibition female (%)” value worked out at 4.4%, the “% inhibition female (individual replicates) R1” value came out at 16.7%, the “% inhibition female (individual replicates) R3” value is listed as -1.9% and the “% inhibition female (individual replicates) R4” value is -1.7%. Besides, the HitlevelF in assay [2] (setting [6]) came out at 0.
Regarding `Cc1ccc(N2C(N)=NC(N)=NC2(C)C)cc1Cl.Cl` [TCMDC-137708], in assay [1] (setting [3]), the “Average inhibition male (%)” value was -13.6%, the “% inhibition male (individual replicates) R1” value amounted to 11.4%, the “% inhibition male (individual replicates) R3” value is given as -5.0% and the “% inhibition male (individual replicates) R4” value is on record as -55.8%. The HitlevelM in assay [1] (setting [4]) turned out to be 0. The Activity in assay [1] (setting [5]) is on record as 0. In assay [2] (setting [3]), the “Average inhibition female (%)” value amounted to 15.0%, the “% inhibition female (individual replicates) R1” value is on record as 12.7%, the “% inhibition female (individual replicates) R3” value came out at 7.1% and the “% inhibition female (individual replicates) R4” value came out at 19.9%. Further, the HitlevelF in assay [2] (setting [6]) is recorded as 0.
Take `CCCCCc1ccc(N2C(N)=NC(N)=NC2(C)C)cc1.Cl` [TCMDC-137709]: in assay [1] (setting [3]), the “Average inhibition male (%)” value worked out at 2.5%, the “% inhibition male (individual replicates) R1” value is listed as 18.2%, the “% inhibition male (individual replicates) R3” value amounted to 6.4% and the “% inhibition male (individual replicates) R4” value was -27.8%. Further, the HitlevelM in assay [1] (setting [4]) was determined as 0. In assay [1] (setting [5]), this compound showed an Activity of 0. For the same compound, in assay [2] (setting [3]), the “Average inhibition female (%)” value is 8.1%, the “% inhibition female (individual replicates) R1” value stood at 15.2%, the “% inhibition female (individual replicates) R3” value is -7.7% and the “% inhibition female (individual replicates) R4” value was determined as 22.0%. In assay [2] (setting [6]), the HitlevelF worked out at 0.
On to `CCCCCOc1ccc(N2C(N)=NC(N)=NC2(C)C)cc1.Cl` [TCMDC-137711], for which, in assay [1] (setting [3]), the “Average inhibition male (%)” value is -17.3%, the “% inhibition male (individual replicates) R1” value is on record as 6.1%, the “% inhibition male (individual replicates) R3” value was -21.6% and the “% inhibition male (individual replicates) R4” value is recorded as -48.5%. The compound also gave a HitlevelM in assay [1] (setting [4]) of 0. In assay [1] (setting [5]), the Activity was 0. Besides, in assay [2] (setting [3]), the “Average inhibition female (%)” value worked out at 10.0%, the “% inhibition female (individual replicates) R1” value amounted to 16.6%, the “% inhibition female (individual replicates) R3” value was -26.0% and the “% inhibition female (individual replicates) R4” value worked out at 23.4%. The compound further yielded a HitlevelF in assay [2] (setting [6]) of 0.
`CC(C)(C)c1ccc(N2C(N)=NC(N)=NC2(C)C)cc1.Cl` [TCMDC-137713]: in assay [1] (setting [3]), the “Average inhibition male (%)” value is given as -3.6%, the “% inhibition male (individual replicates) R1” value amounted to 17.2%, the “% inhibition male (individual replicates) R3” value was found to be 2.2% and the “% inhibition male (individual replicates) R4” value was -36.5%. For the same compound, in assay [1] (setting [7]), the HitlevelM was found to be 0. Moreover, in assay [2] (setting [3]), the “Average inhibition female (%)” value was 20.6%, the “% inhibition female (individual replicates) R1” value was determined as 16.4%, the “% inhibition female (individual replicates) R3” value was 30.6% and the “% inhibition female (individual replicates) R4” value was 16.4%. Further, the HitlevelF in assay [2] (setting [8]) came to 0.
For the compound `CCc1ccc(N2C(N)=NC(N)=NC2(C)C)cc1.Cl` [TCMDC-137714], in assay [1] (setting [3]), the “Average inhibition male (%)” value worked out at 9.1%, the “% inhibition male (individual replicates) R1” value was 34.5%, the “% inhibition male (individual replicates) R3” value is listed as 9.3% and the “% inhibition male (individual replicates) R4” value is recorded as -34.5%. Moreover, in assay [1] (setting [4]), the HitlevelM is reported as 0. The compound also displayed an Activity in assay [1] (setting [5]) of 0. Further, in assay [2] (setting [3]), the “Average inhibition female (%)” value is 7.9%, the “% inhibition female (individual replicates) R1” value came to 15.9%, the “% inhibition female (individual replicates) R3” value was 0.5% and the “% inhibition female (individual replicates) R4” value is given as 12.9%. In assay [2] (setting [6]), this compound yielded a HitlevelF of 0.
On to `CCCC(C)c1ccc(N2C(N)=NC(N)=NC2(C)C)cc1.Cl` (stereo not drawn) [TCMDC-137715], for which, in assay [1] (setting [9]), the “% inhibition male (individual replicates) R1” value is recorded as 8.4% and the “% inhibition male (individual replicates) R4” value is reported as -43.6%. For the same compound, the “Average inhibition male (%)” value in assay [1] (setting [5]) is on record as -6.3%. In assay [2] (setting [9]), the “% inhibition female (individual replicates) R1” value is -4.9%, the “% inhibition female (individual replicates) R3” value is 0.05% and the “% inhibition female (individual replicates) R4” value came to 1.4%. In addition, the “Average inhibition female (%)” value in assay [2] (setting [5]) is recorded as -2.9%.
Turning to `CN1CCN(CCNc2c3ccccc3nc3c2ccc2ccccc23)CC1.Cl` [TCMDC-137723], in assay [1] (setting [3]), the “Average inhibition male (%)” value was -12.0%, the “% inhibition male (individual replicates) R1” value is -27.6%, the “% inhibition male (individual replicates) R3” value is on record as -0.85% and the “% inhibition male (individual replicates) R4” value is listed as 0.03%. In assay [1] (setting [7]), this compound showed a HitlevelM of 0. In assay [2] (setting [3]), the “Average inhibition female (%)” value is on record as 18.4%, the “% inhibition female (individual replicates) R1” value is 9.6%, the “% inhibition female (individual replicates) R3” value amounted to 26.6% and the “% inhibition female (individual replicates) R4” value is recorded as 23.3%. The same compound yielded a HitlevelF in assay [2] (setting [8]) of 0.
Regarding `COc1ccc2nc(-c3ccccc3)cc(NCCCNc3cc(-c4ccccc4)nc4ccc(OC)cc34)c2c1.Cl` [TCMDC-137734], in assay [1] (setting [3]), the “Average inhibition male (%)” value turned out to be 9.4%, the “% inhibition male (individual replicates) R1” value came to 15.3%, the “% inhibition male (individual replicates) R3” value is -6.1% and the “% inhibition male (individual replicates) R4” value stood at 18.2%. The same compound had a HitlevelM in assay [1] (setting [4]) of 0. Further, the Activity in assay [1] (setting [5]) amounted to 0. Besides, in assay [2] (setting [3]), the “Average inhibition female (%)” value worked out at 5.7%, the “% inhibition female (individual replicates) R1” value is 14.1%, the “% inhibition female (individual replicates) R3” value is on record as -18.5% and the “% inhibition female (individual replicates) R4” value came out at 23.4%. The same compound came in with a HitlevelF in assay [2] (setting [6]) of 0.
As for `Cl.c1ccc2c(NCCCCCCCCCNc3ccnc4ccccc34)ccnc2c1` [TCMDC-137750], in assay [1] (setting [3]), the “Average inhibition male (%)” value came out at 54.0%, the “% inhibition male (individual replicates) R1” value is reported as 40.7%, the “% inhibition male (individual replicates) R3” value is 8.2% and the “% inhibition male (individual replicates) R4” value was 84.2%. The same compound yielded a HitlevelM in assay [1] (setting [7]) of 2. Also, in assay [2] (setting [3]), the “Average inhibition female (%)” value was 39.1%, the “% inhibition female (individual replicates) R1” value came out at 35.8%, the “% inhibition female (individual replicates) R3” value turned out to be 19.4% and the “% inhibition female (individual replicates) R4” value turned out to be 48.2%. In assay [2] (setting [8]), this compound gave a HitlevelF of 1.
Consider `COCCOc1nc(N)nc2ncc(Cc3cc(OC)ccc3OC)c(C)c12` [TCMDC-137754], for which, in assay [1] (setting [9]), the “% inhibition male (individual replicates) R1” value is on record as 18.4%, the “% inhibition male (individual replicates) R3” value came out at 27.4% and the “% inhibition male (individual replicates) R4” value is reported as 26.2%. Further, in assay [1] (setting [5]), the “Average inhibition male (%)” value was 25.9%. Further, in assay [2] (setting [9]), the “% inhibition female (individual replicates) R1” value stood at 1.5%, the “% inhibition female (individual replicates) R3” value was -13.9% and the “% inhibition female (individual replicates) R4” value came to 2.0%. Further, the “Average inhibition female (%)” value in assay [2] (setting [5]) was -4.6%.
